Results taken from ChEMBL document CHEMBL2029226, “Molecular Insights into Human Monoamine Oxidase B Inhibition by the Glitazone Anti-Diabetes Drugs” (ACS Med Chem Lett, 2012).
Calls of active or inactive are those of the source. The calls are words filed in the database; no cut-off is given here.

Tests used:
[1] = target: Lysine-specific histone demethylase 1A (Homo sapiens) (UniProt O60341); assay: Inhibition of human histone demethylase LSD1 up to 100 uM
[2] = target: T1, Amine oxidase [flavin-containing] A (Rattus norvegicus, UniProt P21396); assay: Competitive inhibition of rat MAOA expressed in Pichia pastoris
T1 sequence (P21396 whole entry): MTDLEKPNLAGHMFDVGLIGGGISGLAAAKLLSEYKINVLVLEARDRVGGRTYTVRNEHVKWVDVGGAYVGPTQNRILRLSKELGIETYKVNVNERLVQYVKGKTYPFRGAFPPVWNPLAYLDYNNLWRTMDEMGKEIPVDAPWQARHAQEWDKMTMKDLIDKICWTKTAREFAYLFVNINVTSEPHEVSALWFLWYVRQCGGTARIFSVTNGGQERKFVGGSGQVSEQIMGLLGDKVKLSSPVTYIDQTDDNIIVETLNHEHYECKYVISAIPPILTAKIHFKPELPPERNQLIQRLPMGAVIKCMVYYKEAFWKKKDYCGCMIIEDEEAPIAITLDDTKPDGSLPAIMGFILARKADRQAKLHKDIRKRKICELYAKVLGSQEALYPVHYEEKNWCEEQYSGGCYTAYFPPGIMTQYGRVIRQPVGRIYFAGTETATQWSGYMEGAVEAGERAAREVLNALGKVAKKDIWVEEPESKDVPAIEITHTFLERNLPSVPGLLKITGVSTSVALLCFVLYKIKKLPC

[3] = target: T2, Amine oxidase [flavin-containing] A (Homo sapiens, UniProt P21397); assay: Competitive inhibition of human MAOA expressed in Pichia pastoris
T2 sequence (P21397 whole entry): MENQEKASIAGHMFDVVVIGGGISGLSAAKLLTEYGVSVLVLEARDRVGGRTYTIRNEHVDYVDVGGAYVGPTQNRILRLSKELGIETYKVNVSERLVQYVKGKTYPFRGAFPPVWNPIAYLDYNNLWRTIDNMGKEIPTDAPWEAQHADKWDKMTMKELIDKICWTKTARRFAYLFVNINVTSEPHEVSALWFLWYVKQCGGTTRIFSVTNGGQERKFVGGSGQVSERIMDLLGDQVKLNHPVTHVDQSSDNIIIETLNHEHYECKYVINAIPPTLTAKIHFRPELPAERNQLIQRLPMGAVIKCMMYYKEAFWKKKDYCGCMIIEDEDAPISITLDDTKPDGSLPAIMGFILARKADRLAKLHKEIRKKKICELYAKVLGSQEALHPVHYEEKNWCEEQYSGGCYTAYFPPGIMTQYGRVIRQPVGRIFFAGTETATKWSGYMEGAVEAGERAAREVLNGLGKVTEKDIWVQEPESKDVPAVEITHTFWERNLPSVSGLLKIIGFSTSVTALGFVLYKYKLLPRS

[4] = target: T3, Amine oxidase [flavin-containing] B (Rattus norvegicus, UniProt P19643); assay: Competitive inhibition of rat MAOB expressed in Pichia pastoris
T3 sequence (P19643 whole entry): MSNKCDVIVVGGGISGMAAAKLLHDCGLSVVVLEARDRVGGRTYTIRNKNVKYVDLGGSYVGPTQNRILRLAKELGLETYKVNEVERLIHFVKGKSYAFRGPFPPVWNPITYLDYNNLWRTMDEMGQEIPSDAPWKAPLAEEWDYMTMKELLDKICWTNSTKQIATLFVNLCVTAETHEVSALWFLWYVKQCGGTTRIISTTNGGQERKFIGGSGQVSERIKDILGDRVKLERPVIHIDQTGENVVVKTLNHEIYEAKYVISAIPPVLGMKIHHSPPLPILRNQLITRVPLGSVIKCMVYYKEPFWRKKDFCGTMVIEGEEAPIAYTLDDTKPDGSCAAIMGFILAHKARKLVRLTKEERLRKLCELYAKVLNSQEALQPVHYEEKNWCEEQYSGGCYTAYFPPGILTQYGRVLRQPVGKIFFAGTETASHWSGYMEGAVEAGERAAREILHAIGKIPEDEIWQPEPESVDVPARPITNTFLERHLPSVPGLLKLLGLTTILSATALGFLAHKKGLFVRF

[5] = target: T4, Amine oxidase [flavin-containing] B (Homo sapiens, UniProt P27338); assay: Competitive inhibition of human MAOB expressed in Pichia pastoris
T4 sequence (P27338 whole entry): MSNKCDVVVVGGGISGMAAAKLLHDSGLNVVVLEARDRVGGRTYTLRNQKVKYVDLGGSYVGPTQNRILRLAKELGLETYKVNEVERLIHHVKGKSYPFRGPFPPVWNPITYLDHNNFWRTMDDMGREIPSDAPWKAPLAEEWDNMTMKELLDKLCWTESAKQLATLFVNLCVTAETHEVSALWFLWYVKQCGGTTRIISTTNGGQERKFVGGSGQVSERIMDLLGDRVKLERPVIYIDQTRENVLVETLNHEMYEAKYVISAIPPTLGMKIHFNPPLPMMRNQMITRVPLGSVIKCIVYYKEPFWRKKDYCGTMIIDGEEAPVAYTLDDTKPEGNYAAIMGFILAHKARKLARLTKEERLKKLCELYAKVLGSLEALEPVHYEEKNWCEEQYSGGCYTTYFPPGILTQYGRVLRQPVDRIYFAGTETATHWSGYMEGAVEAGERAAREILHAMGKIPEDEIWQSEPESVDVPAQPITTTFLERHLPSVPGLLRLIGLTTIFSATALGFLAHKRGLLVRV

[6] = target: T1, Amine oxidase [flavin-containing] A; assay: Inhibition of rat MAOA expressed in Pichia pastoris at 100 uM
[7] = target: T2, Amine oxidase [flavin-containing] A; assay: Inhibition of human MAOA expressed in Pichia pastoris at 100 uM
[8] = target: T2, Amine oxidase [flavin-containing] A; assay: Uncompetitive inhibition of human MAOA expressed in Pichia pastoris
[9] = target: T1, Amine oxidase [flavin-containing] A; assay: Uncompetitive inhibition of rat MAOA expressed in Pichia pastoris
[10] = target: T4, Amine oxidase [flavin-containing] B; assay: Uncompetitive inhibition of human MAOB expressed in Pichia pastoris
[11] = target: T3, Amine oxidase [flavin-containing] B; assay: Uncompetitive inhibition of rat MAOB expressed in Pichia pastoris

## CN(CCOc1ccc(CC2SC(=O)NC2=O)cc1)c1ccccn1 (racemic) [ROSIGLITAZONE]
[1]
  inhibition: inactive
[2]
  Ki: 32.6 µM
[3]
  Ki: 27.6 µM
[4]
  Ki: 5.8 µM
[5]
  Ki: 4.2 µM

## CCc1ccc(CCOc2ccc(CC3SC(=O)NC3=O)cc2)nc1 (racemic) [PIOGLITAZONE]
[1]
  inhibition: inactive
[6]
  inhibition (INH): Not Active
[4]
  Ki: 2.1 µM
[7]
  inhibition (INH): Not Active

## Cc1c(C)c2c(c(C)c1O)CCC(C)(COc1ccc(CC3SC(=O)NC3=O)cc1)O2 (centres undefined) [TROGLITAZONE]
[1]
  inhibition: inactive
[8]
  Ki: 10.5 µM
[9]
  Ki: 4.8 µM
[10]
  Ki: 9.5 µM
[11]
  Ki: 10.9 µM
